In this assay the target is T1, ENaC (Homo sapiens, UniProt P37088+P51168+P51170).
T1 construct: Primary NHBE cells were isolated from bronchi of normal healthy patients; endogenous in cells; host or cells: primary normal human bronchial epithelial (NHBE) cells, differentiated at air-liquid interface
T1 sequence (P37088 1-669): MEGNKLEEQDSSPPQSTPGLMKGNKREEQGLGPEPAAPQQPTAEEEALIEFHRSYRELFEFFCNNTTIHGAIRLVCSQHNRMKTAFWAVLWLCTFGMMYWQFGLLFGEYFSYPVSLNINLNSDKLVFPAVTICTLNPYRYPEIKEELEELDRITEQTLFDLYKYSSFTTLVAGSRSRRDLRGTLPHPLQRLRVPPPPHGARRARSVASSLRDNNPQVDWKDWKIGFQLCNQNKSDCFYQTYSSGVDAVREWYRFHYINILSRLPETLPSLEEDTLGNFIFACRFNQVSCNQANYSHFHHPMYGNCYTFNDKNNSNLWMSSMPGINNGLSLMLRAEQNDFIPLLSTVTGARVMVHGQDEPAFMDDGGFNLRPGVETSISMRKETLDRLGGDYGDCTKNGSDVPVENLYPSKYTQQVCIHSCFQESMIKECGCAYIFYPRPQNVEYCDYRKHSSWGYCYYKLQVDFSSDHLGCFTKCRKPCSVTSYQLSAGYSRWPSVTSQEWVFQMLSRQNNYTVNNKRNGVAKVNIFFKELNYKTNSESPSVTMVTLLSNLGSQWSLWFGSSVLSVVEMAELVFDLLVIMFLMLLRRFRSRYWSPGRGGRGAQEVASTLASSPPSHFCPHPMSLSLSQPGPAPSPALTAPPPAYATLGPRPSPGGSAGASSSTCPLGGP
T1 sequence (P51168 1-640): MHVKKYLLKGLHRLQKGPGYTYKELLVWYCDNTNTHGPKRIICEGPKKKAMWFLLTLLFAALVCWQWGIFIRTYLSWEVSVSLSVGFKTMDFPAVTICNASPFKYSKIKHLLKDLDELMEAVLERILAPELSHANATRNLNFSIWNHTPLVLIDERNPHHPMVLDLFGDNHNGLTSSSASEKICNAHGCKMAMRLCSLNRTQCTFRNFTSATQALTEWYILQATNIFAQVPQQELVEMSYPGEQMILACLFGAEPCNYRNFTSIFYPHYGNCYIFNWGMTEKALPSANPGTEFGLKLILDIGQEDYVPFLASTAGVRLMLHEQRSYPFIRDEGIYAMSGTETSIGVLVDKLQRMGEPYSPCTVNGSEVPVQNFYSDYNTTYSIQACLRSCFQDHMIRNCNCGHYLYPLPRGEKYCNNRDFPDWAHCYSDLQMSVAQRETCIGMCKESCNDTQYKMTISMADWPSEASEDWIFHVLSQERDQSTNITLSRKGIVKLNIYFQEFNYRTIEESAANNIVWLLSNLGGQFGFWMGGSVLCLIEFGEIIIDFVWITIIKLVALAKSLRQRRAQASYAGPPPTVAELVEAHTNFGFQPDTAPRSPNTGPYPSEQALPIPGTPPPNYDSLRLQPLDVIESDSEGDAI
T1 sequence (P51170 1-649): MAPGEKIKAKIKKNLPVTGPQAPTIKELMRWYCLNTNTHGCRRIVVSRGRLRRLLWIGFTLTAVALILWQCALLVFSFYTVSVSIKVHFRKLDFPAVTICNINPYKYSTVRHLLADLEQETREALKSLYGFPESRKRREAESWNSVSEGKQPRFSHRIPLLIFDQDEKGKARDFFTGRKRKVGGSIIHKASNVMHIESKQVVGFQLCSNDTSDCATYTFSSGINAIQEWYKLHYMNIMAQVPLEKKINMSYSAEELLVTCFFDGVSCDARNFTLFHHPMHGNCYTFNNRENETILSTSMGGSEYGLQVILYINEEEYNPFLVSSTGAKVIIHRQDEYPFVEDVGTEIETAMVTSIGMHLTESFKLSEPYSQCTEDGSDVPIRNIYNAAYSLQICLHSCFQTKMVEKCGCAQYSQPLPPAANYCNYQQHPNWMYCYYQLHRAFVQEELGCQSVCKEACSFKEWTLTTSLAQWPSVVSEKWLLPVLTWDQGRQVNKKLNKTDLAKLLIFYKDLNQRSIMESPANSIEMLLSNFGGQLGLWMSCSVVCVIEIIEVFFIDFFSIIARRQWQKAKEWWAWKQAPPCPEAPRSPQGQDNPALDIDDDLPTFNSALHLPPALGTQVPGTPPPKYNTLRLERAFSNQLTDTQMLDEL
The assay can be described thus: ENaC inhibition in NHBE cell monolayers, Ussing epithelial voltage clamp (short circuit current). Type of assay: cell-based. On the procedure:
The objective of this study was to measure the ability of the illustrative conjugates to modulate ion transport function of ENAC in normal human bronchial epithelial (NHBE) cell monolayers. Sodium transport function of ENAC expressed in NHBE monolayers was evaluated using an Ussing epithelial voltage clamp apparatus. See, Hirsh et al., J. Pharmacol. Exp. Ther. 2008; 325:77-88, hereby incorporated by reference in its entirety.
Primary NHBE cells were isolated from bronchi of normal healthy patients, expanded in Lonza media (BEGM™ BulletKit™), and plated on Snapwell™ filters to form an epithelium. Cells on Snapwell™ inserts were grown for at least 21 days in Vertex Differentiation media and exposed to an air-liquid interface to promote differentiation. At least one day before the assay, mucous overlaying the apical surface was removed from the inserts by incubating the apical surface for about 30 minutes with ≥200 μL of differentiation media followed by aspiration of the mucous film and media.
The NHBE cell monolayers grown on Snapwell™ filter inserts were transferred to Physiologic Instruments Ussing recording chambers (Physiologic Instruments, Inc., San Diego, CA) and superfused with HB-PS. One or more 6-channel or 8-channel Physiologic Instruments VCC MC6 or VCC MC8 epithelial voltage clamps were used in combination to record short circuit current (ISC) from up to 24 inserts simultaneously. Air was used to operate the bubble lifts to rapidly circulate solutions in each Ussing chamber half and to aerate the monolayers.
Inserts were voltage clamped at 0 m V to record the ISC. Bumetanide (20 μM) was added to the basolateral side of all inserts. Test conjugates prepared as DMSO (Sigma-Aldrich) stocks were added cumulatively and sequentially to the apical Ussing chamber halves with at least 3 minutes between each addition.
Time and volume matched additions of DMSO to the basolateral side of the test conjugate treated inserts and both sides of the vehicle treated inserts was made to maintain osmotic balance across the epithelia. Transepithelial resistance was monitored with small voltage steps. The assay was performed at 35±2° C.
ENaC current at each test conjugate concentration was calculated as the peak current change produced by each test conjugate treated insert minus the mean current change produced by the corresponding DMSO additions to time-matched vehicle controls inserts. Cumulative difference data was fit to a Hill equation of the form: […]
Where IEnaC is the ISC peak difference current measured at each test conjugate concentration [Test].

The results in this text go back to US20240374585A1, “EPITHELIAL SODIUM CHANNEL (ENAC) INHIBITOR CONJUGATES AND METHODS FOR USE THEREOF” (Lung Therapeutics, Inc., priority 2021, published 2024).

Where two headings read alike, the source gives them in different places.

In general, IC50 refers to the concentration needed to halve the response being measured. In the case of `CC(=O)N[C@@H](Cc1cn(CCCCNC(N)=NC(=O)c2nc(Cl)c(N)nc2N)nn1)C(=O)NCCCCCC(=O)N[C@@H](C)C(=O)N[C@@H](CO)C(=O)N[C@@H](Cc1c[nH]cn1)C(=O)N[C@@H](CC(C)C)C(=O)N[C@@H](CCCNC(=N)N)C(=O)N[C@@H](CCCCN)C(=O)N[C@@H](CC(C)C)C(=O)N[C@@H](CCCNC(=N)N)C(=O)N[C@@H](CCCCN)C(=O)N[C@@H](CCCNC(=N)N)C(=O)N[C@@H](CC(C)C)C(=O)N[C@@H](CC(C)C)C(N)=O` [Conjugate 8], the IC50 came to 0.06 µM.
With `CC(=O)N[C@@H](Cc1cn(CCCCNC(N)=NC(=O)c2nc(Cl)c(N)nc2N)nn1)C(=O)NCCCCCC(=O)N[C@H](C(=O)N[C@@H](CO)C(=O)N[C@@H](CCCCN)C(=O)N[C@@H](CCCNC(=N)N)C(=O)N[C@@H](CCCNC(=N)N)C(N)=O)C(C)C` [Conjugate 9, Ac-(AmilCC2-Pgy)-Ahx-VSKRR-NH2], for the setting “NHBE cell monolayers, Ussing chamber, apical addition, 35±2° C., read-out: IC50 for the ENaC inhibition”, the IC50 was 0.1 µM.
